The values below come from PubChem BioAssay AID200 (DTP/NCI, 2004).

This test deals with B6C3F1 mice, B16 melanoma ip, median survival T/C. Kind of test: NCI In Vivo Anticancer Drug Screen. Data for tumor model B16 Melanoma (intraperitoneal) in B6C3F1 mice. The conditions noted are these: endpoint: median survival time, higher = longer survival. The essentials:
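Mice bearing transplanted tumor were dosed with compound or vehicle, and survival was recorded. Activity is expressed as the treated-group measurement (T) divided by the vehicle control measurement (C).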

[1] abbreviates: dose: 25.0 mg/kg/injection, schedule: Q01DX009 (ip), vehicle: saline.
Where [2] appears, read: dose: 50.0 mg/kg/injection, schedule: Q01DX009 (ip), vehicle: saline.
Where [3] appears, read: dose: 100.0 mg/kg/injection, schedule: Q01DX009 (ip), vehicle: saline.
The mark [4] stands for this setting: dose: 200.0 mg/kg/injection, schedule: Q01DX009 (ip), vehicle: saline.
Where [5] appears, read: dose: 400.0 mg/kg/injection, schedule: Q01DX009 (ip), vehicle: saline.
Where [6] appears, read: dose: 12.5 mg/kg/injection, schedule: Q01DX009 (ip), vehicle: Klucel (hydroxypropylcellulose) (HPC).
The mark [7] stands for this setting: dose: 25.0 mg/kg/injection, schedule: Q01DX009 (ip), vehicle: Klucel (hydroxypropylcellulose) (HPC).
The mark [8] stands for this setting: dose: 50.0 mg/kg/injection, schedule: Q01DX009 (ip), vehicle: Klucel (hydroxypropylcellulose) (HPC).
The mark [9] stands for this setting: dose: 6.25 mg/kg/injection, schedule: Q01DX009 (ip), vehicle: water.
Where [10] appears, read: dose: 6.25 mg/kg/injection, schedule: Q01DX009 (ip), vehicle: Klucel (hydroxypropylcellulose) (HPC).
[11] abbreviates: dose: 12.5 mg/kg/injection, schedule: Q01DX009 (ip), vehicle: saline.
Setting [12] is: dose: 12.5 mg/kg/injection, schedule: Q01DX009 (ip), vehicle: suspension in saline.
[13] abbreviates: dose: 25.0 mg/kg/injection, schedule: Q01DX009 (ip), vehicle: suspension in saline.
The mark [14] stands for this setting: dose: 100.0 mg/kg/injection, schedule: Q01DX009 (ip), vehicle: suspension in saline.
[15] abbreviates: dose: 200.0 mg/kg/injection, schedule: Q01DX009 (ip), vehicle: suspension in saline.
Where [16] appears, read: dose: 50.0 mg/kg/injection, schedule: Q01DX009 (ip), vehicle: saline with Tween-80.
Where [17] appears, read: dose: 100.0 mg/kg/injection, schedule: Q01DX009 (ip), vehicle: saline with Tween-80.
The mark [18] stands for this setting: dose: 200.0 mg/kg/injection, schedule: Q01DX009 (ip), vehicle: saline with Tween-80.
Setting [19] is: dose: 12.5 mg/kg/injection, schedule: Q01DX009 (ip), vehicle: saline with Tween-80.
Where [20] appears, read: dose: 25.0 mg/kg/injection, schedule: Q01DX009 (ip), vehicle: saline with Tween-80.

“And” between values parts separate entries of the source, which are not always exact repeats. Identical values can stand only once. Inconclusive results and toxic doses are left out.

As for `CN(C)C=O`, the T/C reads like this: under setting [1], 99 % of control; under setting [2], 112 % of control and 100 % of control; under setting [3], 88 % of control and 96 % of control; under setting [4], 86 % of control and 93 % of control; under setting [5], 122 % of control and 98 % of control; (dose: 800.0 mg/kg/injection, schedule: Q01DX009 (ip), vehicle: saline) 108 % of control and 122 % of control. Also, where the note is “dose: 1600.0 mg/kg/injection, schedule: Q01DX009 (ip), vehicle: saline”, the T/C was 116 % of control.
Take `COC(=O)NC1C(C)OC(OC2C/C=C(/C)C3C=CC4C(OC5CC(OC6CC(O)C(OC7CC(O)C(OC)C(C)O7)C(C)O6)C(O)C(C)O5)C(C)CC(C)C4C3(C)/C(O)=C3\C(=O)OC4(CC(C)C(CO)=CC4/C=C\2C)C3=O)CC1(C)[N+](=O)[O-]` (centres undefined): the T/C reads like this: under setting [6], 100 % of control and 104 % of control; under setting [7], 110 % of control and 106 % of control; under setting [8], 121 % of control.
Regarding `CNC(=O)c1cccc2c(Nc3ccc(NS(C)(=O)=O)cc3OC)c3cccc(C)c3nc12`, the T/C (dose: 0.75 mg/kg/injection, schedule: Q01DX009 (ip), vehicle: water) was 116 % of control; the T/C (dose: 0.78 mg/kg/injection, schedule: Q01DX009 (ip), vehicle: water) is 114 % of control; the T/C (dose: 3.0 mg/kg/injection, schedule: Q01DX009 (ip), vehicle: water) was 168 % of control; the T/C under setting [9] was 106 % of control.
As to `CN(N=O)C(=O)N[C@@H](C=O)[C@@H](O)[C@H](O)[C@H](O)CO`, the T/C reads like this: (dose: 12.5 mg/kg/injection, schedule: Q01DX009 (ip), vehicle: other) 115 % of control; (dose: 25.0 mg/kg/injection, schedule: Q01DX009 (ip), vehicle: other) 120 % of control.
With `COC(=O)NC1C(C)OC(OC2C/C=C(/C)C3C=CC4C(OC5CC(OC6CC(OC7CC(O)C(O)C(C)O7)C(OC7CC(O)C(OC)C(C)O7)C(C)O6)C(O)C(C)O5)C(C)CC(C)C4C3(C)/C(O)=C3\C(=O)OC4(CC(C)C(CO)=CC4/C=C\2C)C3=O)CC1(C)[N+](=O)[O-]` (centres undefined), the T/C is 117 % of control and 100 % of control under setting [9]; 108 % of control and 122 % of control (dose: 12.5 mg/kg/injection, schedule: Q01DX009 (ip), vehicle: water); 92 % of control (dose: 12.5 mg/kg/injection, schedule: Q01DX009 (sc), vehicle: water); 116 % of control (dose: 25.0 mg/kg/injection, schedule: Q01DX009 (ip), vehicle: water); 91 % of control (dose: 25.0 mg/kg/injection, schedule: Q01DX009 (sc), vehicle: water); 113 % of control (dose: 50.0 mg/kg/injection, schedule: Q01DX009 (sc), vehicle: water). The T/C runs as follows: (dose: 100.0 mg/kg/injection, schedule: Q01DX009 (sc), vehicle: water) 89 % of control; (dose: 200.0 mg/kg/injection, schedule: Q01DX009 (sc), vehicle: water) 98 % of control.
For `NC1=NCN(C2OC(CO)C(O)C2O)C(=O)N1` (centres undefined), the T/C runs as follows: under setting [2], 108 % of control; under setting [3], 105 % of control.
For the compound `O=C1C=CC(=O)N1c1ccc(Cl)cc1`, the T/C by setting is: (dose: 0.31 mg/kg/injection, schedule: Q01DX009 (ip), vehicle: Klucel (hydroxypropylcellulose) (HPC)) 100 % of control and 102 % of control; (dose: 0.63 mg/kg/injection, schedule: Q01DX009 (ip), vehicle: Klucel (hydroxypropylcellulose) (HPC)) 111 % of control and 86 % of control; (dose: 1.25 mg/kg/injection, schedule: Q01DX009 (ip), vehicle: Klucel (hydroxypropylcellulose) (HPC)) 96 % of control and 100 % of control; (dose: 2.5 mg/kg/injection, schedule: Q01DX009 (ip), vehicle: Klucel (hydroxypropylcellulose) (HPC)) 100 % of control.
For the compound `C[C@@H]1C[C@H]2[C@@H]3CCC4=CC(=O)C=C[C@]4(C)[C@@]3(F)[C@@H](O)C[C@]2(C)[C@@]1(O)C(=O)CO`, the T/C reads like this: (dose: 3.12 mg/kg/injection, schedule: Q01DX009 (ip), vehicle: Klucel (hydroxypropylcellulose) (HPC)) 109 % of control; under setting [10], 118 % of control; under setting [6], 104 % of control.
Take `O=C(Nc1ccc(N=C=S)cc1Cl)c1cc(Cl)cc(Cl)c1O`: the T/C by setting is: under setting [10], 107 % of control; under setting [6], 98 % of control; under setting [7], 116 % of control.
On to `CCOC(=O)C1=C(C#N)C2(CCC(OCc3ccccc3)CC2)C(=O)O1` (centres undefined), for which the T/C is, setting by setting: under setting [11], 105 % of control; under setting [12], 105 % of control; under setting [1], 101 % of control; under setting [13], 96 % of control; under setting [2], 94 % of control; (dose: 50.0 mg/kg/injection, schedule: Q01DX009 (ip), vehicle: suspension in saline) 107 % of control. Besides, the T/C reads like this: under setting [3], 111 % of control; under setting [14], 109 % of control; under setting [15], 107 % of control.
Regarding `CCCC(C(CC)CNC(=O)Nc1cccc2ccccc12)N(C)C(=O)Nc1cccc2ccccc12` (centres undefined), the T/C under setting [16] is 99 % of control; the T/C under setting [17] is 95 % of control; the T/C under setting [18] was 102 % of control; the T/C (dose: 400.0 mg/kg/injection, schedule: Q01DX009 (ip), vehicle: saline with Tween-80) was 95 % of control.
`COCCOC(=O)Cc1ccc(OC)c(OC)c1`: the T/C is, setting by setting: under setting [11], 108 % of control; under setting [1], 98 % of control; under setting [2], 104 % of control; under setting [5], 87 % of control.
Regarding `CSc1ncc2ncn(C3OC(CO)C(O)C3O)c2n1` (centres undefined), the T/C under setting [7] was 101 % of control and 105 % of control; the T/C under setting [8] is 95 % of control and 98 % of control; the T/C (dose: 100.0 mg/kg/injection, schedule: Q01DX009 (ip), vehicle: Klucel (hydroxypropylcellulose) (HPC)) was 103 % of control; the T/C (dose: 200.0 mg/kg/injection, schedule: Q01DX009 (ip), vehicle: Klucel (hydroxypropylcellulose) (HPC)) is 106 % of control; the T/C (dose: 400.0 mg/kg/injection, schedule: Q01DX009 (ip), vehicle: Klucel (hydroxypropylcellulose) (HPC)) is 110 % of control and 89 % of control.
As to `CC(=O)[O][Pb]([O]C(C)=O)([c]1ccccc1)[c]1ccccc1`, the T/C is, setting by setting: under setting [10], 88 % of control; under setting [6], 90 % of control; under setting [7], 88 % of control; under setting [8], 93 % of control.
Take `NCC1CCC(C(=O)O)CC1` (centres undefined): the T/C runs as follows: under setting [19], 102 % of control; under setting [20], 101 % of control; under setting [16], 101 % of control; under setting [17], 101 % of control; under setting [18], 94 % of control.
`CC(=O)NC(Cc1cc(I)c(O)c(I)c1)C(=O)O` (centres undefined): the T/C by setting is: under setting [2], 121 % of control; under setting [3], 89 % of control; under setting [4], 92 % of control; under setting [5], 102 % of control.
For `C1OC1CO[C@@H]1CO[C@H]2[C@@H]1OC[C@H]2OCC1CO1` (some centres undefined), the T/C under setting [11] is 111 % of control; the T/C under setting [12] is 111 % of control; the T/C under setting [1] is 115 % of control; the T/C under setting [13] is 111 % of control; the T/C under setting [3] is 171 % of control and 182 % of control; the T/C under setting [14] is 153 % of control. Moreover, the T/C under setting [4] is 220 % of control and 235 % of control; the T/C under setting [15] is 205 % of control.
As to `O=C(Nc1ccccc1CCl)Nc1ccccc1CCl`, the T/C is, setting by setting: under setting [20], 111 % of control; under setting [16], 115 % of control; under setting [17], 115 % of control; under setting [18], 118 % of control.
`N#CCc1c[nH]c2ccc([N+](=O)[O-])cc12`: the T/C runs as follows: under setting [16], 102 % of control; under setting [17], 100 % of control; under setting [18], 108 % of control.
With `O=C(Nc1nncs1)c1ccncc1`, the T/C runs as follows: under setting [19], 108 % of control; under setting [20], 102 % of control; under setting [16], 92 % of control.
For `O=C/C=C/c1cccc([N+](=O)[O-])c1`, the T/C runs as follows: under setting [20], 107 % of control; under setting [16], 116 % of control; under setting [17], 118 % of control; under setting [18], 124 % of control.
Regarding `O=S1(=O)CS(=O)(=O)OCCO1`, the T/C is 111 % of control under setting [10]; 153 % of control and 161 % of control under setting [6]; 117 % of control under setting [8].
Regarding `CC1CCOS(=O)O1` (centres undefined), the T/C is, setting by setting: (dose: 10.0 mg/kg/injection, schedule: Q01DX009 (ip), vehicle: saline) 104 % of control; (dose: 20.0 mg/kg/injection, schedule: Q01DX009 (ip), vehicle: saline) 123 % of control; (dose: 40.0 mg/kg/injection, schedule: Q01DX009 (ip), vehicle: saline) 110 % of control.
